Test results taken from patent US9840509B2, “Heterocyclic compounds” (CADILA HEALTHCARE LIMITED, priority 2014, dated 2017).

Experiments:
[1] = biological target: T1, CYP 3A4 (Homo sapiens, UniProt P08684); experiment: CYP inhibition in human liver microsomes, 3A4; assay type: in vitro ADME; conditions: pH 7.4, @ 10 μM concn
T1 construct: from tissue; host or cells: human liver microsomes
Summary of the method: (§1)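 Human liver microsomes in 100 mM phosphate pH 7.4 with CYP-specific probe substrate were incubated with test compound at […] and 10 μM, started with 1 mM NADPH at 37° C. Reactions were stopped with acetonitrile, and marker-reaction metabolites were quantified by LC-MS/MS. Final solvent was ≤0.2%.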

[2] = biological target: T2, CYP 2D6 (Homo sapiens, UniProt P10635); experiment: CYP inhibition in human liver microsomes, 2D6; assay type: in vitro ADME; conditions: pH 7.4, @ 10 μM concn
T2 construct: from tissue; host or cells: human liver microsomes
T2 sequence (P10635 whole entry): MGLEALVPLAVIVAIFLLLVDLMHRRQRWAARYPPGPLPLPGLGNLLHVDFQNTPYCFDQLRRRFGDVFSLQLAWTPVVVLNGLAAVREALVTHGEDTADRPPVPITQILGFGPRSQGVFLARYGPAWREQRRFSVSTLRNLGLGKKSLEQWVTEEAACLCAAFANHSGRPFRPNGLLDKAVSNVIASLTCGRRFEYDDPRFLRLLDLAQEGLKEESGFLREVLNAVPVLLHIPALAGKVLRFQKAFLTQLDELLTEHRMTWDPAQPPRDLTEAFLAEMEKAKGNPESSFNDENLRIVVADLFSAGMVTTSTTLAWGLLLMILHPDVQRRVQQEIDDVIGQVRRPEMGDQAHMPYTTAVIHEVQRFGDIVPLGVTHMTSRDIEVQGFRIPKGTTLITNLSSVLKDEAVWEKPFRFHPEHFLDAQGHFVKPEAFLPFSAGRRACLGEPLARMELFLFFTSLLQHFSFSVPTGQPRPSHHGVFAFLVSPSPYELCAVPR
Summary of the method: as §1

[3] = test system: SCW Arthritis Model; experiment: SCW Arthritis model (PGPS-induced paw swelling); assay type: in vivo, Female Sprague dawley (SD) rats; conditions: Dose: 10 mpk, po, rats, Mean ± SD, n = 8
Experimental: All the animal experiments were carried out in female rats and mice, bred in-house. Animals were housed in groups of 6 animals per cage, for a week, in order to habituate them to vivarium conditions (25±4° C., 60-65% relative humidity, 12: 12 h light: dark cycle, with lights on at 7.30 am). All the animal experiments were carried out according to the internationally valid guidelines following approval by the ‘Zydus Research Center animal ethical committee’. SCW Arthritis Female Sprague dawley (SD) rats were primed with an intra-articular injection of 20 μl of peptidoglycan polysaccharide (PGPS), at 0.5 mg/ml of rhamnose in the right ankle. At 2 weeks the paw swelling were measured using a plethysmometer and rats assigned to groups based on initial paw swelling. On day 14 after model initiation, rats were dosed orally (po) with the test compounds. Following the dose administration, 1 h later, the rats received a booster dose of 0.5 ml of PGPS (0.5 mg/ml of rhamnose) via i.v. injection using their tail vein. Compounds were dosed for the following two more days and their paw volumes were measured for 3 more days. The efficacy of the compound was determined as percentage inhibition of paw swelling verses the control (untreated) group.

[4] = biological target: T3, CYP 2C9 (Homo sapiens, UniProt P11712); experiment: CYP inhibition in human liver microsomes, 2C9; assay type: in vitro ADME; conditions: pH 7.4, @ 10 μM concn
T3 construct: from tissue; host or cells: human liver microsomes
T3 sequence (P11712 whole entry): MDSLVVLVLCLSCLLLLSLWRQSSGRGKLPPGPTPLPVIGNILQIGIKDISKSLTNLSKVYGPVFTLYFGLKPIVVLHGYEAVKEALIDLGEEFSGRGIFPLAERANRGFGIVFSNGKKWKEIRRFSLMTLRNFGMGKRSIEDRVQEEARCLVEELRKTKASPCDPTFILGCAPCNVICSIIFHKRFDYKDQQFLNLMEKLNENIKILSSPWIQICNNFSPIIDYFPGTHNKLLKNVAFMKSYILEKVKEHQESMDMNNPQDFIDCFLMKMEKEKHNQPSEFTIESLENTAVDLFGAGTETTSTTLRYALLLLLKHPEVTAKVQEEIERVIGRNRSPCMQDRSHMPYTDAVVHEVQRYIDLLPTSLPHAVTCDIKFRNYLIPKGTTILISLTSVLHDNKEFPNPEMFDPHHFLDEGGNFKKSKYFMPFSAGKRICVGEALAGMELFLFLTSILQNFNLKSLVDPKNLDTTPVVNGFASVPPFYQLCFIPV
Summary of the method: as §1

[5] = biological target: T4, CYP 2C19 (Homo sapiens, UniProt P33261); experiment: CYP inhibition in human liver microsomes, 2C19; assay type: in vitro ADME; conditions: pH 7.4, @ 10 μM concn
T4 construct: from tissue; host or cells: human liver microsomes
T4 sequence (P33261 whole entry): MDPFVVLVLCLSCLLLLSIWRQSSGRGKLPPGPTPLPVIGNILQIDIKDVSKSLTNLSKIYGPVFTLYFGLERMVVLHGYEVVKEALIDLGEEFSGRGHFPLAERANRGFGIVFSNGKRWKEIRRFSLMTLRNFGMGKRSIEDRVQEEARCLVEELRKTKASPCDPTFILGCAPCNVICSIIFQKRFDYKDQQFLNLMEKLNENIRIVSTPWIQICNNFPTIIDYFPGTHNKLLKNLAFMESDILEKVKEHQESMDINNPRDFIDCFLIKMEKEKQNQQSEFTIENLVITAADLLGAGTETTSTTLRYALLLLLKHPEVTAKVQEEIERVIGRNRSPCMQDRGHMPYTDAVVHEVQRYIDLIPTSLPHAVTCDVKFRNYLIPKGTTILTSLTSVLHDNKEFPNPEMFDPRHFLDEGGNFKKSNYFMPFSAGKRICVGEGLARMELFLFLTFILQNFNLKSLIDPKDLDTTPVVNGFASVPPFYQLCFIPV
Summary of the method: as §1

[6] = biological target: T5, CYP 1A2 (Homo sapiens, UniProt P05177); experiment: CYP inhibition in human liver microsomes, 1A2; assay type: in vitro ADME; conditions: pH 7.4, @ 10 μM concn
T5 construct: from tissue; host or cells: human liver microsomes
T5 sequence (P05177 1-516): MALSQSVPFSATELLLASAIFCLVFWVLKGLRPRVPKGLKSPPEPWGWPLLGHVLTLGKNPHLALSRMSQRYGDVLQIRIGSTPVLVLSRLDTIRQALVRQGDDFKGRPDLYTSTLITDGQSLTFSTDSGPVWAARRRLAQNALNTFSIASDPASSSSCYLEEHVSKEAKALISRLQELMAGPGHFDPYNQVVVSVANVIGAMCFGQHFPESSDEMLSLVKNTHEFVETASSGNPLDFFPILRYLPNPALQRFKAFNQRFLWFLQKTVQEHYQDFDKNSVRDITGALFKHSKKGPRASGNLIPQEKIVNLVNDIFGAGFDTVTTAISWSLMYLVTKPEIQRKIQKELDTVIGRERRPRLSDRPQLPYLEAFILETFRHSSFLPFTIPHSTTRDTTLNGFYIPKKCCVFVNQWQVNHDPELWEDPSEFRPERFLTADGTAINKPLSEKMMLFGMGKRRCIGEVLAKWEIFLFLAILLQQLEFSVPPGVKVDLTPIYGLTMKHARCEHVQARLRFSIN
Summary of the method: as §1

T1 sequence (P08684 whole entry): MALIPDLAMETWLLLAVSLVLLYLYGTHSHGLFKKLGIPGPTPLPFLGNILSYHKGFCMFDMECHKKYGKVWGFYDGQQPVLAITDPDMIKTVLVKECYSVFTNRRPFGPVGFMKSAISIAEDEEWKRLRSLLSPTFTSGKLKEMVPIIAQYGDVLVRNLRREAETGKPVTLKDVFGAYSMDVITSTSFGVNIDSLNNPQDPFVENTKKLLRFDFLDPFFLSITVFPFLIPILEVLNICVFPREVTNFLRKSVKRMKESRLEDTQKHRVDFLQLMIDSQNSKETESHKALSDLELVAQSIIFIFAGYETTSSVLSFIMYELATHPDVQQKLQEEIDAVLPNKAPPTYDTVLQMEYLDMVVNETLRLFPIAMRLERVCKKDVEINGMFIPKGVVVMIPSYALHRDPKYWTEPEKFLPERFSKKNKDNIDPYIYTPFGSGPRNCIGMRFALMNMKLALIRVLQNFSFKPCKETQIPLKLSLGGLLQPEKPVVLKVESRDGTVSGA

inhibition at 10 μM [1] [%] | inhibition at 10 μM [2] [%] | inhibition at 10 μM [4] [%] | inhibition at 10 μM [5] [%] | inhibition at 10 μM [6] [%] | SMILES | % inhibition of paw inflammation, Day-16, in SCW Arthritis Model [3] [%]
< 50 | < 50 | < 50 | < 50 | < 50 | C=CC(=O)N1CC2CC(N3C(=O)N(c4ccc(Oc5ccccc5)cc4)C4C(N)=NC=NC43)CC2C1 (stereo not drawn) [Compound 25, 9-(2-acryloyloctahydrocyclopenta[c]pyrrol-5-yl)-6-amino-7-(4-phenoxyphenyl)-5,7-dihydro-4H-purin-8(9H)-one] | 69.6 ± 12.7
< 50 | < 50 | < 50 | < 50 | < 50 | C=CC(=O)N1CC2CC(n3nc(-c4ccc(C(=O)Nc5cc(C)ccn5)cn4)c4c(N)ncnc43)CC2C1 (stereo not drawn) [Compound 42, 6-(1-(2-acryloyloctahydrocyclopenta[c]pyrrol-5-yl)-4-amino-1H-pyrazolo[3,4-d]pyrimidin-3-yl)-N-(4-methylpyridin-2-yl)nicotinamide] | 51.3 ± 9.7
< 50 | < 50 | < 50 | < 50 | < 50 | C=CC(=O)N1CC2CC(n3nc(-c4ccc(C(=O)N(C)c5cc(C)ccn5)cc4)c4c(N)ncnc43)CC2C1 (stereo not drawn) [Compound 54, 4-(1-(2-acryloyloctahydrocyclopenta[c]pyrrol-5-yl)-4-amino-1H-pyrazolo[3,4-d]pyrimidin-3-yl)-N-methyl-N-(4-methylpyridin-2-yl)benzamide] | 89.2 ± 10.3
> 50 | < 50 | < 50 | < 50 | < 50 | C=CC(=O)N1CC2CC(n3nc(-c4ccc(NC(=O)c5ccccn5)cc4)c4c(N)ncnc43)CC2C1 (stereo not drawn) [Compound 32, N-(4-(1-(2-acryloyloctahydrocyclopenta[c]pyrrol-5-yl)-4-amino-1H-pyrazolo[3,4-d]pyrimidin-3-yl)phenyl)picolinamide] | 75.3 ± 6.2
< 50 | < 50 | < 50 | < 50 | < 50 | C=CC(=O)N1CC2CC(n3nc(-c4ccc(-c5nnc(-c6cnccn6)s5)cc4)c4c(N)ncnc43)CC2C1 (stereo not drawn) [Compound 46, 1-(5-(4-amino-3-(4-(5-(pyrazin-2-yl)-1,3,4-thiadiazol-2-yl)phenyl)-1H-pyrazolo[3,4-d]pyrimidin-1-yl)hexahydrocyclopenta[c]pyrrol-2(1H)-yl)prop-2-en-1-one] | 81.8 ± 11.2
